Assay results from article PMC6696115, “Characterization of Antimicrobial, Antioxidant, and Leishmanicidal Activities of Schiff Base Derivatives of 4-Aminoantipyrine” (Molecules, 2019).
Values after ≈ are worked out from the molar mass of the structure shown.

What was measured:
[1] = system: Aspergillus niger ATCC 6275; assay: antimicrobial serial microdilution, A. niger; type: cell-based; conditions: for MIC: 96-well plates, max 2% DMSO
Description: (§1) The in vitro antifungal and antimicrobial activities were determined by testing the Schiff bases against the fungi Saccharomyces cerevisiae, Candida albicans, and Aspergillus niger and the bacteria Staphylococcus aureus, Enterococcus faecalis (Gram-positive), Pseudomonas aeruginosa, and Escherichia coli (Gram-negative).
(§2) The bacterial inoculum was prepared by emulsifying overnight colonies from an agar medium in broth (Mueller–Hinton broth). The suspensions were adjusted to a final organism density of 5 × 10^5 colony former units (cfu)/mL. […] The emulsifying of A. niger cultures was done by pouring 5 mL of saline and 0.1% of polysorbate 80 over the Petri dishes. Then, 100 µL of this suspension were diluted in 5 mL of saline and adjusted to an optical density of 0.1 at 530 nm. For S. cerevisiae, fresh exponential YPAD (yeast extract 1%, peptone 2%, adenine 0.004%, […]) cultures were adjusted to an optical density of 0.5 at 600 nm, and then diluted to the equivalent of 1 × 10^4 cells/mL (10^−3 dilution). Stock solutions of Schiff bases were prepared by dissolving them in DMSO at 10 mg/mL. […] The range of concentrations used was empirically selected for each organisms and the Schiff base. Drug sensitivities were assayed by serial dilutions in 96-well plates as previously described. A row with media and cells but without drug was the positive control. The blank was done by preparing a row with media and drugs, but without cells. Plates were fitted with a tight lid before incubation to prevent desiccation. […] The minimum bactericidal concentration (MBC) and fungicidal concentration (MFC) were determined by spreading 100 µL of culture from each well onto a plate (Mueller–Hinton agar for bacteria, Sabouraud dextrose agar for fungi except S. cerevisiae, and YPAD for S. cerevisiae).

[2] = system: Candida albicans ATCC 10231; assay: antimicrobial serial microdilution, C. albicans; type: cell-based
Description: as §1, §2

[3] = system: S. cerevisiae (backgrounds W303 and BY4741); assay: antimicrobial serial microdilution, S. cerevisiae; type: cell-based, Saccharomyces cerevisiae; conditions: for MIC: read-out: MIC S. cerevisiae
Description: as §1, §2

[4] = system: Enterococcus faecalis ATCC 29212; assay: antimicrobial serial microdilution, E. faecalis; type: cell-based
Description: as §1, §2

[5] = system: Staphylococcus aureus ATCC 29213; assay: antimicrobial serial microdilution, S. aureus; type: cell-based
Description: as §1, §2

[6] = system: Escherichia coli ATCC 25922; assay: antimicrobial serial microdilution, E. coli; type: cell-based
Description: as §1, §2

[7] = system: P. aeruginosa ATCC 27853; assay: antimicrobial serial microdilution, P. aeruginosa; type: cell-based; conditions: Pseudomonas aeruginosa, ATCC27853, 37 °C, 24 h
Description: as §1, §2

[8] = system: promastigotes from L. mexicana (M379); assay: leishmanicidal activity, MTT colorimetric assay; type: cell-based; conditions: Leishmania mexicana, 48 h exposure, 1% DMSO
Description: Leishmanicidal activities of all Schiff bases were evaluated by measuring promastigote mitochondrial activity using MTT colorimetric assay as described previously. […] The medium was renewed every four days. Parasite density was determined in a Neubauer chamber.
Into each well of a 96-well cell culture dish was dispensed 1 × 10^6 parasites. A stock solution of each of the Schiff Base was prepared in DMSO, and serial dilutions were added to the parasite suspension, keeping the solvent concentration at 1%. The final volume was 100 µL for each well and triplicate conditions were carried out. Pentamidine treatment (100 µg/mL) and untreated parasites were used as positive control and negative control, respectively. After exposure to the compounds for 48 h in culture medium, 10 µL of a solution of 5 mg/mL MTT dissolved in PBS was added to each well. […] Later, the plate was centrifuged at 4400 rpm for 10 min and the culture medium was then aspirated. Next, 100 µL of DMSO were added into each well to solubilize the formazan and the plate was shaken for 5 min. The colored formazan salt was measured by recording changes in absorbance at 570 nm using a microplate reader, a BioTek Synergy HT spectrophotometer. A reference wavelength of 630 nm was used to subtract background. Optical densities were analyzed as the quantity of formazan is directly proportional to the number of viable parasites. Data were analyzed with the statistical software GraphPad Prism.

[9] = DPPH radical scavenging assay; type: biochemical; conditions: 30 min, room temperature, dark, absorbance 515 nm
Description: This was used immediately. The experimental procedure was adapted from the literature. Briefly, in a 96-well plate, 100 µL of solution of DPPH (2, 2-diphenyl-1-picrylhydrazyl) radical (0.2 mM in methanol) was added to 100 µL of methanolic solutions of 3a–j, 4, or 5, prepared as serial two-fold dilutions from the stock solution. Standards were also prepared in the same concentrations.
The percentage of DPPH scavenging was then calculated by using the following formula: % DPPH scavenging=100∗Asample+DPPH−Asample blank/ADPPH−Asolvent

[10] = system: RAW 264.7 cells; assay: cell viability, MTT dye assay; type: cell-based, murine; conditions: 48 h
Description: The specificity and selectivity for the pathogen target is a key point for any potential drug.
The medium was renewed once a week. The viability was determined using MTT (thiazolyl blue tetrazolium bromide) dye assay as described previously for leishmanicidal activity assessment, with some variations. Here, 5 × 10^4 cells/well in a final volume of 100 µL were deposited into a 96-well plate in triplicate. Saponin (2 and 4 mg/mL) and untreated cells were used as the positive control and negative control, respectively. Schiff bases were dissolved in DMSO to obtain different serial concentrations (0.01–2000 µM). […] Cells were pelleted by centrifugation at 4400 rpm for 10 minutes and the media was removed. Next, 100 µL/well of DMSO were added and the absorbance at 570 nm was recorded. A reference wavelength of 630 nm was used for background subtraction.

[11] = system: S. cerevisiae wild-type (W303 and BY4741 backgrounds); assay: drop test, wild-type yeast; type: cell-based, Saccharomyces cerevisiae; conditions: wild-type cells
Description: Since the Schiff bases have a limited solubility in dimethyl sulfoxide (DMSO), first, we tested the toxicity of DMSO against the selected microorganism. […] Wild-type cells from W303 background seem to be more resistant, and sensitivity is observed at around 4% DMSO.
Next, we wanted to evaluate the oxidative activity. To do this, drop test assays were performed with wild-type (W303 and BY4741 backgrounds) and sod1 (BY4741 background) yeast cells in the presence of 200 µg/mL of the analyzed Schiff bases (Figure 3). The SOD1 gene encodes superoxide dismutase 1, an enzyme with a major role in detoxifying ROS species generated during metabolism or because of environmental exposure. sod1 mutant cells are unprotected against oxidative agents, decreasing survival in their presence. […] Also, wild-type cells are shown as control, unaffected by the Schiff bases.
For the drop test with S. cerevisiae, wild-type strain (background W303), and wild type and sod1 mutant cells (background BY4741) were grown overnight in YPAD media until an optical density of 0.5 at 600 nm was reached (equivalent to 1 × 10^7 cells/mL). Three serial dilutions were prepared and 5 µL of each was spotted onto a plate (approximately 1 × 10^5, 1 × 10^4, 1 × 10^3, and 1 × 10^2 cells/spot). YPAD plates were supplemented with 200 µg/mL of each Schiff base, and one plate supplemented with 2% DMSO and one plate with YPAD without any drug were used as controls. Plates were incubated at 25 °C for 24, 48, and 72 h.

[12] = system: S. cerevisiae; design: method as in PMID 24028688; conditions: published data; cited from earlier work
[13] = Aspergillus niger, ATCC6275, serial microdilution, 35 °C, 48 h
[14] = Candida albicans, ATCC10231, serial microdilution, 35 °C, 48 h
[15] = Saccharomyces cerevisiae, serial microdilution, 35 °C, 48 h
[16] = Enterococcus faecalis, ATCC29212, serial microdilution, 37 °C, 24 h
[17] = noninhibitory concentration, serial microdilution, 37 °C, 24 h
[18] = Staphylococcus aureus, ATCC29213, serial microdilution, 37 °C, 24 h
[19] = Escherichia coli, ATCC25922, serial microdilution, 37 °C, 24 h
[20] = noninhibitory concentration, serial microdilution, 35 °C, 48 h

| Compound | MIC [1, 13] | MIC [2, 14] | MIC [3, 15] | MIC [4, 16] | MIC [5, 18] | MIC [6, 19] | MIC [7] | IC50 [8] | IC50 [9] | melting point | further results |
| --- | --- | --- | --- | --- | --- | --- | --- | --- | --- | --- | --- |
| Cc1c(N=Cc2ccccc2)c(=O)n(-c2ccccc2)n1C [Compound 3a, 4-Benzylideneamino-1,5-dimethyl-2-phenyl-1H-pyrazol-3(2H)-one] | > 200 µg/mL | > 200 µg/mL | > 200 µg/mL | 32.3 ± 11.7 µg/mL (≈ 111 µM) | > 200 µg/mL | > 200 µg/mL | > 200 µg/mL | > 200 µM | > 200 µM | 176.8 to 177.2 °C | IC50 [4, 16]: 12.2 µg/mL (≈ 41.9 µM); NIC E. faecalis [4, 17]: 3.6 ± 0.7 µg/mL; % Live Cells ([10]; RAW 264.7, exposure to 400 µM): 27.1 ± 3.4% |
| Cc1c(N=Cc2cc([N+](=O)[O-])ccc2O)c(=O)n(-c2ccccc2)n1C [Compound 3f, 4-(2-Hydroxy-5-nitrobenzylideneamino)-1,5-dimethyl-2-phenyl-1H-pyrazol-3(2H)-one] | 32.6 ± 2.1 µg/mL (≈ 92.5 µM) | 15.6 ± 0.9 µg/mL (≈ 44.3 µM) | 55.9 ± 6.2 µg/mL (≈ 159 µM) | > 200 µg/mL | 27.7 ± 4.7 µg/mL (≈ 78.6 µM) | 47.7 ± 1 µg/mL (≈ 135 µM) | > 200 µg/mL | 5.3 ± 2.8 µM | > 200 µM | 204.9 to 205.6 °C | IC50 [1, 13]: 10.6 µg/mL (≈ 30.1 µM); NIC A. niger [1, 20]: 3.4 ± 0.5 µg/mL; IC50 [2, 14]: 10.4 µg/mL (≈ 29.5 µM); NIC C. albicans [2, 20]: 7.5 ± 1.1 µg/mL; IC50 ([3]; Saccharomyces cerevisiae, serial microdilution, 35 °C, 48 h, read-out: IC50 S. cerevisiae (converted)): 17.9 µg/mL (≈ 50.8 µM); NIC S. cerevisiae [3, 20]: 5.6 ± 0.9 µg/mL; IC50 [5, 18]: 9.5 µg/mL (≈ 27 µM); NIC S. aureus [5, 17]: 3.3 ± 1.5 µg/mL; IC50 [6, 19]: 15.8 µg/mL (≈ 44.8 µM); NIC E. coli [6, 17]: 4.9 ± 0.2 µg/mL |
| COc1ccc(C=Nc2c(C)n(C)n(-c3ccccc3)c2=O)cc1O [Compound 3e, 4-(3-Hydroxy-4-methoxybenzylideneamino)-1,5-dimethyl-2-phenyl-1H-pyrazol-3(2H)-one] | > 200 µg/mL | > 200 µg/mL | > 200 µg/mL | > 200 µg/mL | > 200 µg/mL | > 200 µg/mL | > 200 µg/mL | > 200 µM | > 200 µM | 246.8 to 247.2 °C | % Live Cells ([10]; RAW 264.7, exposure to 300 µM (limited solubility)): 27.1 ± 0.8% |
| C[S+](C)[O-] [DMSO, dimethyl sulfoxide] |  |  |  |  |  |  |  |  |  |  | IC50 DMSO A. niger ([1]; DMSO toxicity): 4.36 ± 2.0%; MIC DMSO A. niger ([1]; DMSO toxicity): 19.22 ± 1.3%; NIC DMSO A. niger ([1]; DMSO toxicity): 1.78 ± 0.4%; IC50 DMSO C. albicans ([2]; DMSO toxicity): 8.50 ± 0.5%; MIC DMSO C. albicans ([2]; DMSO toxicity): 14.98 ± 0.6%; NIC DMSO C. albicans ([2]; DMSO toxicity): 4.94 ± 0.5%; IC50 DMSO S. cerevisiae ([3]; DMSO toxicity): 35.62 ± 1.0%; MIC DMSO S. cerevisiae ([3]; DMSO toxicity): 71.47 ± 1.7%; NIC DMSO S. cerevisiae ([3]; DMSO toxicity): 5.04 ± 1.1%; IC50 DMSO E. faecalis ([4]; DMSO toxicity): 8.66 ± 0.6%; MIC DMSO E. faecalis ([4]; DMSO toxicity): 20.02 ± 1.3%; NIC DMSO E. faecalis ([4]; DMSO toxicity): 3.68 ± 0.2%; IC50 DMSO S. aureus ([5]; DMSO toxicity): 20.36 ± 5.2%; MIC DMSO S. aureus ([5]; DMSO toxicity): 32.64 ± 6.9%; NIC DMSO S. aureus ([5]; DMSO toxicity): 8.52 ± 0.9%; NIC DMSO E. coli ([6]; DMSO toxicity): 11.95 ± 2.9%; DMSO concentration at which cells begin to show diminished viability (drop test) ([11]; BY4741 strain): ≥ 3%; DMSO concentration at which sensitivity is observed (drop test) ([11]; W303 background): around 4%; DMSO concentration significantly toxic for S. cerevisiae [12]: over 2% |
| COc1cc(C=Nc2c(C)n(C)n(-c3ccccc3)c2=O)cc(OC)c1O [Compound 3j, 4-(4-Hydroxy-3,5-dimethoxybenzylideneamino)-1,5-dimethyl-2-phenyl-1H-pyrazol-3(2H)-one] | > 200 µg/mL | > 200 µg/mL | > 200 µg/mL | > 200 µg/mL | > 200 µg/mL | > 200 µg/mL | > 200 µg/mL | > 200 µM | 15.7 ± 3.2 µM | 259.2 to 260.7 °C |  |
